# Experimental data taken from PMC8752738, “A propolis-derived small molecule ameliorates metabolic syndrome in obese mice by targeting the CREB/CRTC2 transcriptional complex” (Nature Communications, 2022).
# Several values for one entry are separate records, joined by “and”; a condition that tells them apart may be missing. Equal entries are not always repeated.
# Key:
# CBP = CBP (Homo sapiens, UniProt Q92793); experiment: Acetyltransferase activity of CBP (H3K27ac immunoblot, HEK293 cells); assay type: cell-based; details: for relative H3K27ac level: Fig 3d replicates, HA-CBP +, TSA-0.5uM +
# Description: Fig. 3 APC inhibits CRTC2 interacting with CREB-ZIP and reduces acetyltransferase activity of CBP by binding with CREB protein directly. a Isothermal titration calorimetry (ITC) of HIS-CREB protein solution titrated into APC solution. The bottom solid line represents a nonlinear least-squares fitted by a single-site binding model. One of two independent experiments is shown here. b IC50 of APC inhibitory activity detected by CREB–CRTC2 two-hybrid assay in HEK293T cells (n = 3 per treatment, data are represented as mean ± SEM). One of three independent experiments is shown here. c Immunoprecipitation analysis of FLAG-CRTC2-WT recovered by anti-MYC antibody from HEK293 cells co-transfected with plasmids for a Myc-Creb-Zip fragment and the FLAG-Crtc2-Wt, stimulated by FSK (10 nM) for 2-h before harvest. APC (1–10 μM) was included in immunoprecipitation mixtures as indicated. Top represents one of three independent experiments, and the relative gray density of FLAG normalized to MYC in MYC-IP- factions is shown as a bar graph (bottom, n = 3). Data are represented as mean ± SEM; P values were determined by one-way ANOVA followed Dunnett’s multiple comparisons test. d Immunoblotting analysis of the acetyltransferase activity of CBP. The protein levels of H3K27ac and total Histone H3 were determined using specific antibodies from HEK293 cell lysate overexpressing HA-Cbp plasmid. […] The top represents one of three independent experiments, and the relative gray density of H3K27ac normalized to total Histone H3 in cell lysate is shown as a bar graph (bottom, n = 3). Data are represented as mean ± SEM; P values were determined by one-way ANOVA followed Dunnett’s multiple comparisons test. ns, P > 0.05; *P < 0.05; **P < 0.01. Sources data for this figure are provided as source data file.
# [1] = biological target: T1, GST-CREB / HIS-CRTC2-S171A interaction (Homo sapiens, UniProt P16220); experiment: In vitro pull-down with purified GST-CREB and HIS-CRTC2-S171A; assay type: biochemical; details: for Relative HIS/GST in GST-pull down fraction: Fig 2d replicates
# T1 construct: made in house; host or cells: E. coli
# T1 sequence (P16220 whole entry, stated change not applied): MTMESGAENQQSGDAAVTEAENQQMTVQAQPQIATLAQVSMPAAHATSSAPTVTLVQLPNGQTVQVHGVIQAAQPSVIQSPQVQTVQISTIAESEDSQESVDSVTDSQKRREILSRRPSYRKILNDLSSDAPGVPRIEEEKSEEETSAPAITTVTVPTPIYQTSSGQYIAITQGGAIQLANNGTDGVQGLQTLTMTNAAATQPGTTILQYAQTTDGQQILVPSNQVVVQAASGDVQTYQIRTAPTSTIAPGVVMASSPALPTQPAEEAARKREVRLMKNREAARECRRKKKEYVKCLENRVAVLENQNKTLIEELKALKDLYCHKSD
# Description: To further confirm whether APC disrupts the protein association between CREB and CRTC2, we performed GST-pull-down assays in which GST-CREB beads were used to immunoprecipitated FLAG-tagged CRTC2 proteins that were expressed in HEK293T cells. As expected, APC attenuated the amounts of FLAG-CRTC2 proteins recovered by GST-CREB beads from HEK293T cell lysates (Fig. 2a). […] In contrast, APC had little effect on the association of GST-CREB with HA-P300 (Supplementary Fig. 2a), as well as the interaction between endogenous CRTC2 and CBP proteins (Fig. 2c). Moreover, the interactions of CREB and the isoforms CRTC1 and CRTC3 were also attenuated by APC in overexpression HEK293T cells (Supplementary Fig. 2b, c).
# Fig. 2 APC blocks interaction between CREB and CRTC2. a Analysis of GST-CREB immunoprecipitated with overexpressed FLAG-CRTC2 from the lysates of HEK293T cells. APC (10 μM) was added to the culture media for 1 h and the following IP mixture. The relative gray density of FLAG in GST-pull-down fraction is shown as a bar graph (bottom). One of three independent experiments is presented (top, n = 3). Data are represented as mean ± SEM); P values were determined by one-way ANOVA followed Dunnett’s multiple comparisons test. b Analysis of HA-CRTC2 immunoprecipitated with endogenous CREB from primary hepatocyte lysates. APC (10 μM) was added to the culture media for 1-h before 30-min of stimulation with glucagon (Gluc, 100 nM) and the following IP mixture as indicated. Top panel presents one of three independent experiments, and the relative gray density of HA in CREB-IP-faction is shown as a bar graph (bottom, n = 3). Data are represented as mean ± SEM; P values were determined by one-way ANOVA followed Dunnett’s multiple comparisons test. c Immunoblotting analysis of endogenous CREB, CRTC2, and CBP interaction by an anti-CRTC2 antibody from the lysate of primary hepatocytes. APC (10 μM) was added to the culture media for 1-h before 30-min stimulation with glucagon. Related CREB and CBP normalized by CRTC2, respectively, in CRTC2-IP fractions. The top panel presents one of three independent experiments, and the relative gray density of CREB and CBP normalized to CRTC2 in the CRTC2-IP-faction is shown as a bar graph (bottom, n = 3). Data are represented as mean ± SEM; P values were determined by two-way ANOVA followed Bonferroni’s multiple comparisons test. d Immunoblotting analysis of protein GST-CREB recovered HIS-CRTC2-S171A proteins purified from E. coli. The addition of APC (5, 10, or 50 μM) in pull-down mixtures is indicated. […] Data are represented as mean ± SEM; P values were determined by one-way ANOVA followed Dunnett’s multiple comparisons test (compared with APC = 0).
# [2] = biological target: T2, endogenous CRTC2 / CBP interaction (Mus musculus, UniProt P45481+Q3U182); experiment: Co-immunoprecipitation by anti-CRTC2 antibody, primary hepatocytes: CBP; assay type: cell-based
# T2 construct: endogenous in cells; host or cells: mouse primary hepatocytes
# T2 sequence (Q3U182 2-692 limits assumed): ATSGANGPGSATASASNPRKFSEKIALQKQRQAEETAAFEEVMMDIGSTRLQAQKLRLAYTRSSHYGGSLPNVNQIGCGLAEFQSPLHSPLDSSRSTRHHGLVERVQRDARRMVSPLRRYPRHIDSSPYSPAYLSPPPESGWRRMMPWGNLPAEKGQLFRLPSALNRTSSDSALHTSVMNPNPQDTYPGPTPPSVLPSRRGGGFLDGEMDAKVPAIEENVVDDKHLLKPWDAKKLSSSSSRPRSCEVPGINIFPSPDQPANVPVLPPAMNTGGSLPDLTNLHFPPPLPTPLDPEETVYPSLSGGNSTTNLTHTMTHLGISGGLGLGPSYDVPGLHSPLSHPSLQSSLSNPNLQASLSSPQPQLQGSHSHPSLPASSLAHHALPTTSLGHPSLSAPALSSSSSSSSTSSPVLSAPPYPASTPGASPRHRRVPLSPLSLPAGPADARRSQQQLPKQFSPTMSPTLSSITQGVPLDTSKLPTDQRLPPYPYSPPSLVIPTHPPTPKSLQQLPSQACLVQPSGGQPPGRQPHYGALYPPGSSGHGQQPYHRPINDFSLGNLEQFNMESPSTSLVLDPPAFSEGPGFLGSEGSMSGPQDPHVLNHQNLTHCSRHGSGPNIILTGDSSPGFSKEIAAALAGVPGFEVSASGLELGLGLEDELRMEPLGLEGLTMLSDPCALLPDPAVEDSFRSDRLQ
# T2 sequence (P45481 2-2441 limits assumed): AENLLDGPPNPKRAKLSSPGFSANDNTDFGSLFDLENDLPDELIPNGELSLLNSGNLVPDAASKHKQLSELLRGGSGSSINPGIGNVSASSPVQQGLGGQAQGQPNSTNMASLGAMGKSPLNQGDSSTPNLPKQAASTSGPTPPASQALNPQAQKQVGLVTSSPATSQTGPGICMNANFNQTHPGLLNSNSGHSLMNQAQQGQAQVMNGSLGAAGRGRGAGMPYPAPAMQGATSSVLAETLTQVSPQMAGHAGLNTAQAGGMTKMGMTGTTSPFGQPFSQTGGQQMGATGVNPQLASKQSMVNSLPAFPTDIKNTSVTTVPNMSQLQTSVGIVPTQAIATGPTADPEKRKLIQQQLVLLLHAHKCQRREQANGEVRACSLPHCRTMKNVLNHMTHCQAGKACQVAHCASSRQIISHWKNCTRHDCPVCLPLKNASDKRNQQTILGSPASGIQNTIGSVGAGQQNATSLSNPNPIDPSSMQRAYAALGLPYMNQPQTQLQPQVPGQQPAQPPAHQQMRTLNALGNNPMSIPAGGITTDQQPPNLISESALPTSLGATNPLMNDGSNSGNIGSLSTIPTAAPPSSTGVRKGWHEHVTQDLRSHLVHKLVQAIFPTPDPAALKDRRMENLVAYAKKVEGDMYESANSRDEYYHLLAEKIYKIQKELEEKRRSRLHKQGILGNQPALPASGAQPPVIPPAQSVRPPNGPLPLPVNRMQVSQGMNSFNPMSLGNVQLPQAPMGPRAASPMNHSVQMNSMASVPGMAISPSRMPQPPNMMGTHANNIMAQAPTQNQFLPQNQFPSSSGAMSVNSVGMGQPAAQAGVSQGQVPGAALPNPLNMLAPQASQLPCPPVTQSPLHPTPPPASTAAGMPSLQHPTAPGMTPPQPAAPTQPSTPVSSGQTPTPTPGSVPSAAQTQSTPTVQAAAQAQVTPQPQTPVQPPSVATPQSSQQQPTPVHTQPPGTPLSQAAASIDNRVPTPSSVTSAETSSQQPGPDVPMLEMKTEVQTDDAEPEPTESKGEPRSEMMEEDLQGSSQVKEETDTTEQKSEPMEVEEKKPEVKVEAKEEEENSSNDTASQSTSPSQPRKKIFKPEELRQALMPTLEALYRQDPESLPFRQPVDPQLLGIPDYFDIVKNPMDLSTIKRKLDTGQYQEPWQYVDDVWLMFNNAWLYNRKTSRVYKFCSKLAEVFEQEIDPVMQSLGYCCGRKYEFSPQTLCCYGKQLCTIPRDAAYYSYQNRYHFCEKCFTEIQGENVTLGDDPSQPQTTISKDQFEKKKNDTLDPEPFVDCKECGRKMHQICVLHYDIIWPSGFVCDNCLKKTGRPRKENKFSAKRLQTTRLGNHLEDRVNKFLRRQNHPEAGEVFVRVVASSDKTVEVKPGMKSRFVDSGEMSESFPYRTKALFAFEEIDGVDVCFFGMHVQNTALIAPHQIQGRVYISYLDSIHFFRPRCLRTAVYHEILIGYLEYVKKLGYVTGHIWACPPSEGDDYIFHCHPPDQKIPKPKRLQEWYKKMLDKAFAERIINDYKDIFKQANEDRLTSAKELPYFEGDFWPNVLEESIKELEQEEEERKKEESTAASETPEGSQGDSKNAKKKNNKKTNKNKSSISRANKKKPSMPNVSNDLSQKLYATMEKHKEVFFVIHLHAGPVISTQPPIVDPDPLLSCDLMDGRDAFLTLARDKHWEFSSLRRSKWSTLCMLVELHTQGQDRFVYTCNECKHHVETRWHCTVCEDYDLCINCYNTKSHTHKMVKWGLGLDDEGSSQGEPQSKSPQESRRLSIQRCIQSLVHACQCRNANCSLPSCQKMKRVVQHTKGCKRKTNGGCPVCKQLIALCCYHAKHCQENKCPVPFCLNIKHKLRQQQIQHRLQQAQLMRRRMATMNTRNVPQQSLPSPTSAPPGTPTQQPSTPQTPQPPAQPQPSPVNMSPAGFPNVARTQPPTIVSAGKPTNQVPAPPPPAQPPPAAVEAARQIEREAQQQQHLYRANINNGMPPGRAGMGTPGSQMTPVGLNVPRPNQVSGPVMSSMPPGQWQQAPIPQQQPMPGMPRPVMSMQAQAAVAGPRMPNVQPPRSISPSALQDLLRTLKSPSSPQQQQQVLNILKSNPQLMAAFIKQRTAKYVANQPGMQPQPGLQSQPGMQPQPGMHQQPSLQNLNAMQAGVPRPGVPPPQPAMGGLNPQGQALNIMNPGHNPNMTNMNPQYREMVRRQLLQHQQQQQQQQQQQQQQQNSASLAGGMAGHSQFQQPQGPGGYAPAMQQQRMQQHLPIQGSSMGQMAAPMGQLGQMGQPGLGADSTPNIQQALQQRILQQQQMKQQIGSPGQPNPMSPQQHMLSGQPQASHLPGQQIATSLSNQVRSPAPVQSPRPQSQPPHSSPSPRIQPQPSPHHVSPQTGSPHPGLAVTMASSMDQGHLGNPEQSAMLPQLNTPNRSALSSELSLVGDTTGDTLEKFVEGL
# Experimental: Fig. 2 APC blocks interaction between CREB and CRTC2. a Analysis of GST-CREB immunoprecipitated with overexpressed FLAG-CRTC2 from the lysates of HEK293T cells. APC (10 μM) was added to the culture media for 1 h and the following IP mixture. The relative gray density of FLAG in GST-pull-down fraction is shown as a bar graph (bottom). One of three independent experiments is presented (top, n = 3). Data are represented as mean ± SEM); P values were determined by one-way ANOVA followed Dunnett’s multiple comparisons test. b Analysis of HA-CRTC2 immunoprecipitated with endogenous CREB from primary hepatocyte lysates. […] Data are represented as mean ± SEM; P values were determined by one-way ANOVA followed Dunnett’s multiple comparisons test. c Immunoblotting analysis of endogenous CREB, CRTC2, and CBP interaction by an anti-CRTC2 antibody from the lysate of primary hepatocytes. […] Data are represented as mean ± SEM; P values were determined by two-way ANOVA followed Bonferroni’s multiple comparisons test. d Immunoblotting analysis of protein GST-CREB recovered HIS-CRTC2-S171A proteins purified from E. coli. […] Data are represented as mean ± SEM; P values were determined by one-way ANOVA followed Dunnett’s multiple comparisons test (compared with APC = 0). […]
smiles,measurement,setting,value
"CC(C)=CCc1cc(C=CC(=O)O)cc(CC=C(C)C)c1O [APC, 3,5-diprenyl-4-hydroxycinnamic acid]",relative H3K27ac level,CBP; APC 2 uM,1.193 and 1.187 and 1.293
same,relative H3K27ac level,CBP; APC 5 uM,0.5384 and 0.3648 and 0.6529
same,acetylation level of H3K27ac induced by CBP,CBP; HEK293 cells overexpressing HA-Cbp,dose-dependently reduced
same,Relative HIS/GST in GST-pull down fraction,[1]; APC 5 uM,0.8055 and 0.8618 and 0.7881
same,Relative HIS/GST in GST-pull down fraction,[1]; APC 10 uM,0.4842 and 0.3120 and 0.3223
same,Relative HIS/GST in GST-pull down fraction,[1]; APC 50 uM,0.1707 and 0.1125 and 0.1021
same,HIS-CRTC2-S171A recovered by GST-CREB,"[1]; purified proteins, APC 5, 10, 50 μM, dose-dependent",significantly diminished
same,"CBP/CRTC2 band gray signal, CRTC2-COIP fraction","[2]; Fig 2c replicates, APC+ (10 μM)",0.6163 and 0.6152 and 0.6031
same,interaction between endogenous CRTC2 and CBP,"[2]; primary hepatocytes, APC 10 μM",little effect
